Experiment [1] addresses Microtubule-associated serine/threonine-protein kinase 1 (Homo sapiens) (UniProt Q9Y2H9). The experiment is described as follows: Selectivity interaction (KinomeScan (DiscoverX)) EUB0001877a MAST1. Conditions: at 1 µM.
Experiment [2] addresses Sodium-dependent noradrenaline transporter (Homo sapiens, UniProt P23975). The experiment is described as follows: Selectivity interaction (BET inhibitor selectivity panel (Human SPA binding assay)) EUB0000102c SLC6A2.
In experiment [3] the target is Potassium voltage-gated channel subfamily KQT member 1 (Homo sapiens, UniProt P51787). The experiment can be described thus: Selectivity interaction (BET inhibitor selectivity panel (Human Blocker ionworks assay)) EUB0000102c KCNQ1. Background: Patch clamp records ionic current or voltage across a cell membrane.
Experiment [4] addresses Voltage-gated inwardly rectifying potassium channel KCNH3 (Homo sapiens, UniProt Q9ULD8). The experiment can be described thus: Selectivity interaction (BET inhibitor selectivity panel (Human FP binding assay)) EUB0000102c KCNH3.
The target of experiment [5] is Substance-K receptor (Homo sapiens) (UniProt P21452). The experiment can be described thus: Selectivity interaction (CEREP panel (GPCRs, ion channels, and transporters)) EUB0000102c TACR2. Conditions: at 10 µM.
Substance-K receptor (Homo sapiens), sequence (P21452 whole entry): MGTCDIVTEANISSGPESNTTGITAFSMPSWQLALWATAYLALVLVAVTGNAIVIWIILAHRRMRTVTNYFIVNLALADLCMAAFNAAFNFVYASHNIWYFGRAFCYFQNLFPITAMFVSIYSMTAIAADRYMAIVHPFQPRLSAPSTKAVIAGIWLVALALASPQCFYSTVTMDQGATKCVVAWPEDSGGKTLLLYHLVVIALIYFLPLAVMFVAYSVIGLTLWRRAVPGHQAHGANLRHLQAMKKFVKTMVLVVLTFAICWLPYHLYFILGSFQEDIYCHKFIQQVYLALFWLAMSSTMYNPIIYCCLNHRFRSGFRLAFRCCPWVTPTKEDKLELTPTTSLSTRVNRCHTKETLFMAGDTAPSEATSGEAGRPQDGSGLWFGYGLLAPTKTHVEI
Another experiment concerns the target CREB-binding protein (Homo sapiens, UniProt Q92793). The experiment can be described thus: Selectivity interaction (Bromodomain panel (DSF assays, literature)) EUB0000102c CREBBP.
The target in experiment [6] is 5-hydroxytryptamine receptor 1A (Homo sapiens, UniProt P08908). The experiment is described as follows: Selectivity interaction (BET inhibitor selectivity panel (Human SPA binding assay)) EUB0000102c HTR1A.
5-hydroxytryptamine receptor 1A, sequence (P08908 whole entry): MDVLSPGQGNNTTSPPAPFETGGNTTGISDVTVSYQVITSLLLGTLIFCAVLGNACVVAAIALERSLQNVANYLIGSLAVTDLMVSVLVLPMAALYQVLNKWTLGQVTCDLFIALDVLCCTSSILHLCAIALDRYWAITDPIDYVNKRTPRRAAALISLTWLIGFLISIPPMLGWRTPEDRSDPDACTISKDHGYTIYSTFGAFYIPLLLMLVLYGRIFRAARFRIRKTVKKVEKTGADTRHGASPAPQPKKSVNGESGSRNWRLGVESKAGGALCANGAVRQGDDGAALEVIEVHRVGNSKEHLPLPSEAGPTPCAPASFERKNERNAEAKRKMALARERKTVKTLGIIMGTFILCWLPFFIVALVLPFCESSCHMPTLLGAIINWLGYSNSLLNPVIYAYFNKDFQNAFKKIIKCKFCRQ
Experiment [7] addresses 5-hydroxytryptamine receptor 3A (Homo sapiens, UniProt P46098). The experiment can be described thus: Selectivity interaction (BET inhibitor selectivity panel (Human antagonist intracellular Ca2+ fluorescence assay)) EUB0000102c HTR3A. The class given is cell-based.
Experiment [8] concerns the target Voltage-dependent P/Q-type calcium channel subunit alpha-1A (Homo sapiens, UniProt O00555). The experiment can be described thus: Selectivity interaction (BET inhibitor selectivity panel (Human blocker intracellular Ca2+ fluorescence assay)) EUB0000102c CACNA1A. The class given is cell-based.
The target in experiment [9] is Potassium voltage-gated channel subfamily E member 1 (Homo sapiens, UniProt P15382). The experiment is described as follows: Selectivity interaction (BET inhibitor selectivity panel (Human Blocker ionworks assay)) EUB0000102c KCNE1.

Consider two compounds from ChEMBL document CHEMBL5465560, “Selectivity Literature for EUbOPEN Chemogenomic Library” (2024).

Molecules are shown by their SMILES.

Sodium-dependent noradrenaline transporter, sequence (P23975 whole entry): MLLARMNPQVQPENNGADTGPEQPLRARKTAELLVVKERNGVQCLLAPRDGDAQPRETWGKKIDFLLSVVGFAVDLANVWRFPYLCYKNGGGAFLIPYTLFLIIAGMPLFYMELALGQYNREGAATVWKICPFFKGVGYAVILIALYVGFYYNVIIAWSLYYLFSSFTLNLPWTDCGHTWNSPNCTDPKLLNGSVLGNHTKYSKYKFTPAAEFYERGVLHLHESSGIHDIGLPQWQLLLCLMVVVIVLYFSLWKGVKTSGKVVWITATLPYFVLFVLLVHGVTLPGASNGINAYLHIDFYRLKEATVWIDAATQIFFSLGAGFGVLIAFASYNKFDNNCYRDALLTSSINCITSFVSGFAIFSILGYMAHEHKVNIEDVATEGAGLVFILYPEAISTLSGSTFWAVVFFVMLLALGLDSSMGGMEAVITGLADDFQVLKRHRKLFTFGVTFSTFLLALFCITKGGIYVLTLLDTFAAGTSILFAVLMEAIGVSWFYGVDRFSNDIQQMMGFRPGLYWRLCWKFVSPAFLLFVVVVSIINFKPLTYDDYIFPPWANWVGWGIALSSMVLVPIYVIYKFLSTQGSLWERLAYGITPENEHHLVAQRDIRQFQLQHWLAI
CREB-binding protein, sequence (Q92793 2-2442 limits assumed): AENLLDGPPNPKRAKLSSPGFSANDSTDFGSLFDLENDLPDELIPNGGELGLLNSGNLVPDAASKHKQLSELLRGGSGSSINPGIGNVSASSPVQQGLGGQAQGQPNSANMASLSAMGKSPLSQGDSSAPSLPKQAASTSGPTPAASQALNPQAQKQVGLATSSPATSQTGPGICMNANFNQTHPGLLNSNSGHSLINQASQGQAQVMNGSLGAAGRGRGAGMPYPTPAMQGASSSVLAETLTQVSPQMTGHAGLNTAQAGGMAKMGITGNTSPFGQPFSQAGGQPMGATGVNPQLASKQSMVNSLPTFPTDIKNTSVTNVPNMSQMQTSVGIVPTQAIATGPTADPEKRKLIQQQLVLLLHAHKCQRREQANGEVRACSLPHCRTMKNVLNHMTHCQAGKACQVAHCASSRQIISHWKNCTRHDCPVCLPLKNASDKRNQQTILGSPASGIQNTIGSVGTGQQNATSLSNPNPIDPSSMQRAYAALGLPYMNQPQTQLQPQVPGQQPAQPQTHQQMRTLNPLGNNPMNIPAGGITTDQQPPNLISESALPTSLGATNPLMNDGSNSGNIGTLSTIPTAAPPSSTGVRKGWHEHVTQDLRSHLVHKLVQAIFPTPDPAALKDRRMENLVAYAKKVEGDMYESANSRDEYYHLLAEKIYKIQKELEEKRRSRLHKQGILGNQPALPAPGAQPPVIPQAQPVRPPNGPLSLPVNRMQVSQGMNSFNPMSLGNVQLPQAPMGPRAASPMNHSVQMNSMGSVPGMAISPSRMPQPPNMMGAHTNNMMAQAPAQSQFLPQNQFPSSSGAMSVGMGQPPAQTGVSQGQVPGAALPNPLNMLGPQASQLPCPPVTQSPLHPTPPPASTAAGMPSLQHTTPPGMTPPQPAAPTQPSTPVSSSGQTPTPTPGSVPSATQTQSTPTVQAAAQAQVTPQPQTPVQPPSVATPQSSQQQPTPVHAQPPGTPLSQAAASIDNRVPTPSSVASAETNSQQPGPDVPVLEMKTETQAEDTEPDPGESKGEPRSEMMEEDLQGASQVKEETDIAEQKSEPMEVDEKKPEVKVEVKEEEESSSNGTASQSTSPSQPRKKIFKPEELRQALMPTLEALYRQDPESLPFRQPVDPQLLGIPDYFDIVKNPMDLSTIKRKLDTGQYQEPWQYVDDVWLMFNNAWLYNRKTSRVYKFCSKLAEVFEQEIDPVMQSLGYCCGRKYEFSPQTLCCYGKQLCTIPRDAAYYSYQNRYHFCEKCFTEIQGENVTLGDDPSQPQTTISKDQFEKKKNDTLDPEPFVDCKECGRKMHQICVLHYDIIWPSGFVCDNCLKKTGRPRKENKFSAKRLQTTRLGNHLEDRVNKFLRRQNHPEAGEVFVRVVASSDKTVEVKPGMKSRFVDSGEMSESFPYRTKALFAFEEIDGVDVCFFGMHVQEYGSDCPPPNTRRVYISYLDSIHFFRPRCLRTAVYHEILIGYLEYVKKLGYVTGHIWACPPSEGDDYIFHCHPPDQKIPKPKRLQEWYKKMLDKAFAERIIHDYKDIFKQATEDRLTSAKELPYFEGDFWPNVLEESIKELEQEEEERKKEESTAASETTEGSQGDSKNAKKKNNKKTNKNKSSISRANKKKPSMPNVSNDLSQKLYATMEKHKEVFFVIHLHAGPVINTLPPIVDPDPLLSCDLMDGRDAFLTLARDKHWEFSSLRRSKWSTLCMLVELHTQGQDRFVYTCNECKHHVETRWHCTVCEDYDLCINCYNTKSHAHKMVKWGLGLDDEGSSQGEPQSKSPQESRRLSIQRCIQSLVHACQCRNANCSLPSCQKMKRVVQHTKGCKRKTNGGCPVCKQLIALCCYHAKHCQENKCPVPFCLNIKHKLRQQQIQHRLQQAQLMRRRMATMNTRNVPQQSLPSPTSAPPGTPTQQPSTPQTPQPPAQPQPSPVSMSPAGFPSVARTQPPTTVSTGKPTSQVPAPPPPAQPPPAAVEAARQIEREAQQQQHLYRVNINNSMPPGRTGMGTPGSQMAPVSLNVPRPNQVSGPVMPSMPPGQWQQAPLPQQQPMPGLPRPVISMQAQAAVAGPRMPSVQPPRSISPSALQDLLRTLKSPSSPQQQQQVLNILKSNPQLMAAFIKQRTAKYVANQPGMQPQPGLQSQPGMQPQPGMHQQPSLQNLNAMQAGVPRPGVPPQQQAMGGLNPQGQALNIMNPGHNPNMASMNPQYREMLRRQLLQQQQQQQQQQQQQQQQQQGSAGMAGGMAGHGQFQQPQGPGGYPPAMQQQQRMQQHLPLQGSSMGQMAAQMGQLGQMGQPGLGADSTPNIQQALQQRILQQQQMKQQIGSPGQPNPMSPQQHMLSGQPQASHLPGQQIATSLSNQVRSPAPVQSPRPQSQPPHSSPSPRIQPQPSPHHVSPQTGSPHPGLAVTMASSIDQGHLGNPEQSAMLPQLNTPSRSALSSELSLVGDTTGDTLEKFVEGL
Voltage-gated inwardly rectifying potassium channel KCNH3, sequence (Q9ULD8 whole entry): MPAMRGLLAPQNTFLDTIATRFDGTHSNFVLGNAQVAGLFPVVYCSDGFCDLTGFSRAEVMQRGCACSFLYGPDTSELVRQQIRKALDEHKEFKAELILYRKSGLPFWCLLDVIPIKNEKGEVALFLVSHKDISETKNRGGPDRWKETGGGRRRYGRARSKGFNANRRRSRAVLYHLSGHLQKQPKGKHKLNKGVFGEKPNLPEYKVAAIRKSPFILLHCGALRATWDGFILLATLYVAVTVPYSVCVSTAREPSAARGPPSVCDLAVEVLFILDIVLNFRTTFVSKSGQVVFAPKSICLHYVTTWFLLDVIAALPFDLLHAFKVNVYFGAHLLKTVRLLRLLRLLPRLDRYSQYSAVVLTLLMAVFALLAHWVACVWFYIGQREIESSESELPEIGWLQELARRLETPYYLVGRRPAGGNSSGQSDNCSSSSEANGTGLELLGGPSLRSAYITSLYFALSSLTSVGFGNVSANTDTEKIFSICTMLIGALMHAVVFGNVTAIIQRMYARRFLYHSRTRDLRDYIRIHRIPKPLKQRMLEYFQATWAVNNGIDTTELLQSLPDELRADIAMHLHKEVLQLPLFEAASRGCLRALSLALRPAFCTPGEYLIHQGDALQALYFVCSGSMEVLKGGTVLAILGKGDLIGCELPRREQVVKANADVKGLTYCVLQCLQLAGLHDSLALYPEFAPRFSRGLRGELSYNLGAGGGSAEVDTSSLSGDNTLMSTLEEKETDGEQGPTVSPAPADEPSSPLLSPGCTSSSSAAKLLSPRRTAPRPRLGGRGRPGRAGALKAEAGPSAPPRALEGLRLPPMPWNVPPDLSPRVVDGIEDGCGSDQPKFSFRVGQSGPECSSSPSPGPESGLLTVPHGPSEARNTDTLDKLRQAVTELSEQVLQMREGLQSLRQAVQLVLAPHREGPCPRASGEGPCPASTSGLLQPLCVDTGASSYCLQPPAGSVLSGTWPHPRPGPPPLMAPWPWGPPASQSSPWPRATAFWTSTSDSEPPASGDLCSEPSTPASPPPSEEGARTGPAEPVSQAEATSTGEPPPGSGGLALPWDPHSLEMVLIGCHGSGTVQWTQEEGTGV

In [1], `Nc1ncc2c(n1)-c1c([nH]c3ccc(C4CC4)cc13)CCCC2` yielded a % of control of 32%.

`COc1cc2c(cc1-c1c(C)noc1C)ncc1[nH]c(=O)n([C@H](C)c3ccccn3)c12`: the IC50 (commonly the concentration that inhibits the measured activity by half) in experiment [2] is over 100 µM; in experiment [3] it was over 25 µM; in experiment [4], 40 µM; in [6], over 100 µM; in [7], over 50 µM; in experiment [8], 1.26 µM. The same compound yielded an IC50 in experiment [9] of over 25 µM. The same compound had a % of inhibition in experiment [5] of 48%. Moreover, the dTM at CREB-binding protein was under 3 K.
